Measured values as given in PubChem BioAssay (NCI).
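48-hour exposure; five concentrations; linearly interpolated endpoints. GI50: concentration for 50% inhibition of growth. At the TGI there is no net growth.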

Key:
Assay in all cases: inhibition of tumour cell growth, NCI panel, 48 h
786-0 renal = tested on: 786-0 renal
A498 renal = tested on: A498 renal
A549 NSCLC = tested on: A549 NSCLC
ACHN renal = tested on: ACHN renal
BT-549 breast = tested on: BT-549 breast
CAKI-1 renal = tested on: CAKI-1 renal
CCRF-CEM leukemia = tested on: CCRF-CEM leukemia
COLO 205 colon = tested on: COLO 205 colon
DU-145 prostate = tested on: DU-145 prostate
EKVX NSCLC = tested on: EKVX NSCLC
HCT-116 colon = tested on: HCT-116 colon
HCT-15 colon = tested on: HCT-15 colon
HL-60(TB) leukemia = tested on: HL-60(TB) leukemia
HOP-62 NSCLC = tested on: HOP-62 NSCLC
HOP-92 NSCLC = tested on: HOP-92 NSCLC
HS 578T breast = tested on: HS 578T breast
HT29 colon = tested on: HT29 colon
IGROV1 ovarian = tested on: IGROV1 ovarian
KM12 colon = tested on: KM12 colon
LOX IMVI melanoma = tested on: LOX IMVI melanoma
M14 melanoma = tested on: M14 melanoma
MALME-3M melanoma = tested on: MALME-3M melanoma
MCF7 breast = tested on: MCF7 breast
MDA-MB-231 breast = tested on: MDA-MB-231 breast
MDA-MB-435 = tested on: MDA-MB-435
NCI-H226 lung = tested on: NCI-H226 lung
NCI-H460 lung = tested on: NCI-H460 lung
NCI-H522 lung = tested on: NCI-H522 lung
OVCAR-3 ovarian = tested on: OVCAR-3 ovarian
OVCAR-4 ovarian = tested on: OVCAR-4 ovarian
OVCAR-8 ovarian = tested on: OVCAR-8 ovarian
PC-3 prostate = tested on: PC-3 prostate
RXF 393 renal = tested on: RXF 393 renal
SF-268 CNS = tested on: SF-268 CNS
SF-295 CNS = tested on: SF-295 CNS
SF-539 CNS = tested on: SF-539 CNS
SK-MEL-2 melanoma = tested on: SK-MEL-2 melanoma
SK-MEL-28 melanoma = tested on: SK-MEL-28 melanoma
SK-MEL-5 melanoma = tested on: SK-MEL-5 melanoma
SK-OV-3 ovarian = tested on: SK-OV-3 ovarian
SN12C renal = tested on: SN12C renal
SNB-19 CNS = tested on: SNB-19 CNS
SNB-75 CNS = tested on: SNB-75 CNS
SW-620 colon = tested on: SW-620 colon
T-47D breast = tested on: T-47D breast
TK-10 renal = tested on: TK-10 renal
U251 CNS = tested on: U251 CNS
UACC-257 melanoma = tested on: UACC-257 melanoma
UACC-62 melanoma = tested on: UACC-62 melanoma
UO-31 renal = tested on: UO-31 renal

## CCN(CCO)CCCC(C)Nc1ccnc2cc(Cl)ccc12 (stereo not given)
786-0 renal
  GI50: > 100 µM
  TGI: > 100 µM
A498 renal
  GI50: > 100 µM
  TGI: > 100 µM
A549 NSCLC
  GI50: > 100 µM
  TGI: > 100 µM
ACHN renal
  GI50: > 100 µM
  TGI: > 100 µM
BT-549 breast
  GI50: > 100 µM
  TGI: > 100 µM
CAKI-1 renal
  GI50: > 100 µM
  TGI: > 100 µM
CCRF-CEM leukemia
  GI50: > 100 µM
  TGI: > 100 µM
COLO 205 colon
  GI50: > 100 µM
  TGI: > 100 µM
DU-145 prostate
  GI50: > 100 µM
  TGI: > 100 µM
EKVX NSCLC
  GI50: > 100 µM
  TGI: > 100 µM
HCT-116 colon
  GI50: > 100 µM
  TGI: > 100 µM
HCT-15 colon
  GI50: > 100 µM
  TGI: > 100 µM
HL-60(TB) leukemia
  GI50: 13.3 µM
  TGI: 47.6 µM
HOP-62 NSCLC
  GI50: > 100 µM
  TGI: > 100 µM
HOP-92 NSCLC
  GI50: > 100 µM
  TGI: > 100 µM
HS 578T breast
  GI50: > 100 µM
  TGI: > 100 µM
HT29 colon
  GI50: > 100 µM
  TGI: > 100 µM
IGROV1 ovarian
  GI50: > 100 µM
  TGI: > 100 µM
KM12 colon
  GI50: > 100 µM
  TGI: > 100 µM
LOX IMVI melanoma
  GI50: > 100 µM
  TGI: > 100 µM
M14 melanoma
  GI50: > 100 µM
  TGI: > 100 µM
MALME-3M melanoma
  GI50: > 100 µM
  TGI: > 100 µM
MCF7 breast
  GI50: > 100 µM
  TGI: > 100 µM
MDA-MB-231 breast
  GI50: > 100 µM
  TGI: > 100 µM
MDA-MB-435
  GI50: > 100 µM
  TGI: > 100 µM
NCI-H226 lung
  GI50: > 100 µM
  TGI: > 100 µM
NCI-H460 lung
  GI50: > 100 µM
  TGI: > 100 µM
NCI-H522 lung
  GI50: > 100 µM
  TGI: > 100 µM
OVCAR-3 ovarian
  GI50: > 100 µM
  TGI: > 100 µM
OVCAR-4 ovarian
  GI50: > 100 µM
  TGI: > 100 µM
OVCAR-8 ovarian
  GI50: > 100 µM
  TGI: > 100 µM
PC-3 prostate
  GI50: > 100 µM
  TGI: > 100 µM
RXF 393 renal
  GI50: 73.8 µM
  TGI: > 100 µM
SF-268 CNS
  GI50: > 100 µM
  TGI: > 100 µM
SF-295 CNS
  GI50: > 100 µM
  TGI: > 100 µM
SF-539 CNS
  GI50: 8.63 µM
  TGI: > 100 µM
SK-MEL-2 melanoma
  GI50: > 100 µM
  TGI: > 100 µM
SK-MEL-28 melanoma
  GI50: > 100 µM
  TGI: > 100 µM
SK-MEL-5 melanoma
  GI50: > 100 µM
  TGI: > 100 µM
SK-OV-3 ovarian
  GI50: > 100 µM
  TGI: > 100 µM
SN12C renal
  GI50: > 100 µM
  TGI: > 100 µM
SNB-19 CNS
  GI50: > 100 µM
  TGI: > 100 µM
SNB-75 CNS
  GI50: > 100 µM
  TGI: > 100 µM
SW-620 colon
  GI50: > 100 µM
  TGI: > 100 µM
T-47D breast
  GI50: > 100 µM
  TGI: > 100 µM
TK-10 renal
  GI50: > 100 µM
  TGI: > 100 µM
U251 CNS
  GI50: > 100 µM
  TGI: > 100 µM
UACC-257 melanoma
  GI50: > 100 µM
  TGI: > 100 µM
UACC-62 melanoma
  GI50: > 100 µM
  TGI: > 100 µM
UO-31 renal
  GI50: > 100 µM
  TGI: > 100 µM
